These results are taken from patent US10206394B2, “Herbicidal compounds” (Syngenta Participations AG, priority 2014, dated 2019).

What all share (assay): Glasshouse assay for herbicidal activity (pre- and post-emergence), percentage phytotoxicity
What all share (type): in vivo

The subject of assay [1] is Alopecurus myosuroides (ALOMY). The settings on record: Alopecurus myosuroides. The method in brief:
(§1)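 Herbicide was applied to potted plants sown in standard soil, one day after sowing for PRE and after about 12 days for POST. Visual percentage damage ratings followed at 15 DAA (POST) and 20 DAA (PRE).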

For assay [2], the system named is Echinochloa crus-galli (ECHCG). The settings on record: Echinochloa crus-galli. The method in brief: as §1
For assay [3], the system named is Avena fatua (AVEFA). The settings on record: Avena fatua. The method in brief:
as §1

Assay [4] relates to Lolium perenne (LOLPE). The following applies: Lolium perenne. The method in brief: as §1
[5] abbreviates: post-emergence, 360 h, POST-emergence, rate 250 g/ha, visual score 15 DAA (100%=total damage, 0%=no damage), read-out: Post-emergence herbicidal activity (percentage phytotoxicity) ALOMY POST.
Where [6] appears, read: pre-emergence, 480 h, PRE-emergence, rate 250 g/ha, visual score 20 DAA (100%=total damage, 0%=no damage), read-out: Pre-emergence herbicidal activity (percentage phytotoxicity) ALOMY PRE.
Setting [7] is: post-emergence, 360 h, POST-emergence, rate 250 g/ha, visual score 15 DAA (100%=total damage, 0%=no damage), read-out: Post-emergence herbicidal activity (percentage phytotoxicity) ECHCG POST.
Setting [8] is: pre-emergence, 480 h, PRE-emergence, rate 250 g/ha, visual score 20 DAA (100%=total damage, 0%=no damage), read-out: Pre-emergence herbicidal activity (percentage phytotoxicity) ECHCG PRE.
Where [9] appears, read: post-emergence, 360 h, POST-emergence, rate 250 g/ha, visual score 15 DAA (100%=total damage, 0%=no damage), read-out: Post-emergence herbicidal activity (percentage phytotoxicity) AVEFA POST.
The mark [10] stands for this setting: pre-emergence, 480 h, PRE-emergence, rate 250 g/ha, visual score 20 DAA (100%=total damage, 0%=no damage), read-out: Pre-emergence herbicidal activity (percentage phytotoxicity) AVEFA PRE.
The mark [11] stands for this setting: post-emergence, 360 h, POST-emergence, rate 250 g/ha, visual score 15 DAA (100%=total damage, 0%=no damage), read-out: Post-emergence herbicidal activity (percentage phytotoxicity) LOLPE POST.
Setting [12] is: pre-emergence, 480 h, PRE-emergence, rate 250 g/ha, visual score 20 DAA (100%=total damage, 0%=no damage), read-out: Pre-emergence herbicidal activity (percentage phytotoxicity) LOLPE PRE.
Setting [13] is: post-emergence, 360 h, Rate 250 g/ha, post-emergence, assessed visually 15 DAA, 100%=total damage, 0%=no damage, read-out: Post-emergence herbicidal activity (percentage phytotoxicity) ALOMY POST.
Setting [14] is: pre-emergence, 480 h, Rate 250 g/ha, pre-emergence, assessed visually 20 DAA, 100%=total damage, 0%=no damage, read-out: Pre-emergence herbicidal activity (percentage phytotoxicity) ALOMY PRE.
Where [15] appears, read: post-emergence, 360 h, Rate 250 g/ha, post-emergence, assessed visually 15 DAA, 100%=total damage, 0%=no damage, read-out: Post-emergence herbicidal activity (percentage phytotoxicity) ECHCG POST.
Setting [16] is: pre-emergence, 480 h, Rate 250 g/ha, pre-emergence, assessed visually 20 DAA, 100%=total damage, 0%=no damage, read-out: Pre-emergence herbicidal activity (percentage phytotoxicity) ECHCG PRE.
[17] abbreviates: post-emergence, 360 h, Rate 250 g/ha, post-emergence, assessed visually 15 DAA, 100%=total damage, 0%=no damage, read-out: Post-emergence herbicidal activity (percentage phytotoxicity) AVEFA POST.
Where [18] appears, read: pre-emergence, 480 h, Rate 250 g/ha, pre-emergence, assessed visually 20 DAA, 100%=total damage, 0%=no damage, read-out: Pre-emergence herbicidal activity (percentage phytotoxicity) AVEFA PRE.
[19] abbreviates: post-emergence, 360 h, Rate 250 g/ha, post-emergence, assessed visually 15 DAA, 100%=total damage, 0%=no damage, read-out: Post-emergence herbicidal activity (percentage phytotoxicity) LOLPE POST.
Setting [20] is: pre-emergence, 480 h, Rate 250 g/ha, pre-emergence, assessed visually 20 DAA, 100%=total damage, 0%=no damage, read-out: Pre-emergence herbicidal activity (percentage phytotoxicity) LOLPE PRE.
Setting [21] is: post-emergence, 360 h, 250 g/ha, post-emergence, 15 DAA, visual assessment (100%=total damage, 0%=no damage), read-out: Post-emergence herbicidal activity (percentage phytotoxicity) ALOMY POST.
[22] abbreviates: pre-emergence, 480 h, 250 g/ha, pre-emergence, 20 DAA, visual assessment (100%=total damage, 0%=no damage), read-out: Pre-emergence herbicidal activity (percentage phytotoxicity) ALOMY PRE.
Setting [23] is: post-emergence, 360 h, 250 g/ha, post-emergence, 15 DAA, visual assessment (100%=total damage, 0%=no damage), read-out: Post-emergence herbicidal activity (percentage phytotoxicity) ECHCG POST.
[24] abbreviates: pre-emergence, 480 h, 250 g/ha, pre-emergence, 20 DAA, visual assessment (100%=total damage, 0%=no damage), read-out: Pre-emergence herbicidal activity (percentage phytotoxicity) ECHCG PRE.
Where [25] appears, read: post-emergence, 360 h, 250 g/ha, post-emergence, 15 DAA, visual assessment (100%=total damage, 0%=no damage), read-out: Post-emergence herbicidal activity (percentage phytotoxicity) AVEFA POST.
The mark [26] stands for this setting: pre-emergence, 480 h, 250 g/ha, pre-emergence, 20 DAA, visual assessment (100%=total damage, 0%=no damage), read-out: Pre-emergence herbicidal activity (percentage phytotoxicity) AVEFA PRE.
Where [27] appears, read: post-emergence, 360 h, 250 g/ha, post-emergence, 15 DAA, visual assessment (100%=total damage, 0%=no damage), read-out: Post-emergence herbicidal activity (percentage phytotoxicity) LOLPE POST.
The mark [28] stands for this setting: pre-emergence, 480 h, 250 g/ha, pre-emergence, 20 DAA, visual assessment (100%=total damage, 0%=no damage), read-out: Pre-emergence herbicidal activity (percentage phytotoxicity) LOLPE PRE.

Like-named read-outs stand apart in the source and are kept apart here.

Take `C=CC(C)NC(=O)CC1CC(=O)C(c2c(C)cc(-c3ncc(Cl)cc3F)cc2C)C1=O` (stereo not drawn) [Compound B300]: the pest or weed control at 250 g/ha in assay [1] (setting [5]), in assay [1] (setting [6]), in assay [2] (setting [7]), in assay [2] (setting [8]), in assay [3] (setting [9]) and in assay [3] (setting [10]) was 100% in each case. Further, the pest or weed control at 250 g/ha in assay [4] (setting [11]) and in assay [4] (setting [12]) was 100% in each case.

For the compound `Cc1cc(-c2ccc(C(F)(F)F)cn2)cc(C)c1C1C(=O)CC(CC(=O)NCc2cccc(C(F)(F)F)c2)C1=O` (stereo not drawn) [Compound A153], the pest or weed control at 250 g/ha in assay [1] (setting [13]) worked out at 90%; in assay [1] (setting [14]), 30%; in assay [2] (setting [15]), 90%; in assay [2] (setting [16]) it was 90%; in assay [3] (setting [17]) it was 90%; in assay [3] (setting [18]), 70%. The pest or weed control at 250 g/ha in assay [4] (setting [19]) stood at 70%; in assay [4] (setting [20]) it was 60%.

In the case of `Cc1cc(C)c(C2C(=O)CC(CC(=O)NCc3ccc(C#N)cc3)C2=O)c(C)c1` (stereo not drawn) [Compound B69], the pest or weed control at 250 g/ha is 40% in assay [1] (setting [21]); 50% in assay [1] (setting [22]); 80% in assay [2] (setting [23]); 90% in assay [2] (setting [24]); 100% in assay [3] (setting [25]); 80% in assay [3] (setting [26]). Moreover, the pest or weed control at 250 g/ha in assay [4] (setting [27]) amounted to 80%; in assay [4] (setting [28]) it was 90%.

Regarding `CCc1cc(OCC(F)(F)F)cc(C)c1C1C(=O)CC(CC(=O)NC(C)C)C1=O` (stereo not drawn) [Compound B217], the pest or weed control at 250 g/ha in assay [1] (setting [5]), in assay [1] (setting [6]), in assay [2] (setting [7]), in assay [2] (setting [8]), in assay [3] (setting [9]) and in assay [3] (setting [10]) was 100% in each case. Moreover, the pest or weed control at 250 g/ha in assay [4] (setting [11]) and in assay [4] (setting [12]) was 100% throughout.

As for `CCNC(=O)CC1CC(=O)C(c2c(C)cc(-c3ncc(F)cc3F)cc2C)C1=O` (stereo not drawn) [Compound B201], the pest or weed control at 250 g/ha in assay [1] (setting [5]), in assay [1] (setting [6]), in assay [2] (setting [7]), in assay [2] (setting [8]), in assay [3] (setting [9]) and in assay [3] (setting [10]) was 100% throughout. Also, the pest or weed control at 250 g/ha in assay [4] (setting [11]) and in assay [4] (setting [12]) was 100% throughout.

As for `Cc1cc(-c2ncc(Cl)s2)cc(C)c1C1C(=O)CC(CC(=O)NC(C)(C)C)C1=O` (stereo not drawn) [Compound B24], the pest or weed control at 250 g/ha in assay [1] (setting [21]) was determined as 90%; in assay [1] (setting [22]) it was 80%; in assay [2] (setting [23]), 100%; in assay [2] (setting [24]), 100%; in assay [3] (setting [25]) it was 80%; in assay [3] (setting [26]) it was 80%. Moreover, the results for the pest or weed control at 250 g/ha in assay [4] (setting [27]) and in assay [4] (setting [28]) were 90% and 100%, respectively.

On to `Cc1cc(C)c(C2C(=O)CC(CC(=O)NCc3cccc(Br)c3)C2=O)c(C)c1` (stereo not drawn) [Compound B23], for which the pest or weed control at 250 g/ha turned out to be 60% in assay [1] (setting [21]); 70% in assay [1] (setting [22]); 90% in assay [2] (setting [23]); 90% in assay [2] (setting [24]); 70% in assay [3] (setting [25]); 60% in assay [3] (setting [26]). For the same compound, the figures for the pest or weed control at 250 g/ha in assay [4] (setting [27]) and in assay [4] (setting [28]) were 90% and 100%, respectively.

For `Cc1cc(-c2cnc(Cl)cn2)cc(C)c1C1C(=O)CC(CC(=O)NCc2cccs2)C1=O` (stereo not drawn) [Compound A148], the pest or weed control at 250 g/ha in assay [1] (setting [13]) was 70%; in assay [1] (setting [14]), 70%; in assay [2] (setting [15]), 100%; in assay [2] (setting [16]), 100%; in assay [3] (setting [17]) it was 100%; in assay [3] (setting [18]), 80%. The figures for the pest or weed control at 250 g/ha in assay [4] (setting [19]) and in assay [4] (setting [20]) were 90% and 80%, respectively.

With `Cc1cc(-c2ccc(F)cn2)cc(C)c1C1C(=O)CC(CC(=O)NC/C=C/Cl)C1=O` (stereo not drawn) [Compound B400], the pest or weed control at 250 g/ha came to 100% in assay [1] (post-emergence, 360 h, Rate 250 g/ha, post-emergence, visual assessment 15 DAA, 100%=total damage, 0%=no damage, read-out: Post-emergence herbicidal activity (percentage phytotoxicity) ALOMY POST); 100% in assay [1] (pre-emergence, 480 h, Rate 250 g/ha, pre-emergence, visual assessment 20 DAA, 100%=total damage, 0%=no damage, read-out: Pre-emergence herbicidal activity (percentage phytotoxicity) ALOMY PRE); 100% in assay [2] (post-emergence, 360 h, Rate 250 g/ha, post-emergence, visual assessment 15 DAA, 100%=total damage, 0%=no damage, read-out: Post-emergence herbicidal activity (percentage phytotoxicity) ECHCG POST); 100% in assay [2] (pre-emergence, 480 h, Rate 250 g/ha, pre-emergence, visual assessment 20 DAA, 100%=total damage, 0%=no damage, read-out: Pre-emergence herbicidal activity (percentage phytotoxicity) ECHCG PRE); 100% in assay [3] (post-emergence, 360 h, Rate 250 g/ha, post-emergence, visual assessment 15 DAA, 100%=total damage, 0%=no damage, read-out: Post-emergence herbicidal activity (percentage phytotoxicity) AVEFA POST); 100% in assay [3] (pre-emergence, 480 h, Rate 250 g/ha, pre-emergence, visual assessment 20 DAA, 100%=total damage, 0%=no damage, read-out: Pre-emergence herbicidal activity (percentage phytotoxicity) AVEFA PRE). Besides, the pest or weed control at 250 g/ha came out at 90% in assay [4] (post-emergence, 360 h, Rate 250 g/ha, post-emergence, visual assessment 15 DAA, 100%=total damage, 0%=no damage, read-out: Post-emergence herbicidal activity (percentage phytotoxicity) LOLPE POST) and 100% in assay [4] (pre-emergence, 480 h, Rate 250 g/ha, pre-emergence, visual assessment 20 DAA, 100%=total damage, 0%=no damage, read-out: Pre-emergence herbicidal activity (percentage phytotoxicity) LOLPE PRE).
